Target: Peroxisomal trans-2-enoyl-CoA reductase (Homo sapiens) (UniProt Q9BY49)
Test: PECR reductase ligand binding by thermal shift, biophysical, human, DSF, SYPRO orange, NADP+ (AID 392)
Conditions: recombinant PECR, at 10 µM, protein 2 µM, buffer 10 mM HEPES, pH 7.5, NaCl 150 mM, NADP 200 µM, stronger effect = higher value

Peroxisomal trans-2-enoyl-CoA reductase (Homo sapiens), sequence (Q9BY49 whole entry, looked up): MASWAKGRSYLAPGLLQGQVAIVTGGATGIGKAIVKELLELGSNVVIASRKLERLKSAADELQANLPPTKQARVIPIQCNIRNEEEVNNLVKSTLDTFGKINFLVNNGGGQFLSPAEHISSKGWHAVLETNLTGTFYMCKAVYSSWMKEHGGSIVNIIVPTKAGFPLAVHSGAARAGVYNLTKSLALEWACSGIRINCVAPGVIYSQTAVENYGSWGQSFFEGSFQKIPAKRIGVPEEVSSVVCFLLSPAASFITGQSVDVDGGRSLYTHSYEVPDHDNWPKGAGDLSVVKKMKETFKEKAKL

Row | Compound | Tm shift [Celsius]
1 | CCc1nnc(NS(=O)(=O)c2ccc(NC(=O)/C=C/c3ccc(F)cc3)cc2)s1 | 2.4
2 | O=C(C1CCC(CNS(=O)(=O)c2ccc(Br)s2)CC1)N1CCN(C(c2ccccc2)c2ccc(Cl)cc2)CC1 (stereo not drawn) | 2.3
3 | O=C(C1CCN(S(=O)(=O)c2ccc(Br)s2)CC1)N1CCN(C(c2ccccc2)c2ccc(Cl)cc2)CC1 (stereo not drawn) | 2.1
4 | NC(=O)c1ccc[n+](C2OC(COP(=O)(O)OP(=O)(O)OCC3OC(n4cnc5c(N)ncnc54)C(OP(=O)(O)O)C3O)C(O)C2O)c1 (stereo not drawn) | 2.2
5 | O=c1oc2cc(O)ccc2c2oc3cc(O)ccc3c12 | 2.2
6 | NC(=O)c1ccc[n+](C2OC(COP(=O)(O)OP(=O)(O)OCC3OC(n4cnc5c(N)ncnc54)C(O)C3O)C(O)C2O)c1 (stereo not drawn) | 2.2

Same assay, conditions: recombinant PECR, at 10 µM, protein 2 µM, buffer 10 mM HEPES, pH 7.5, NaCl 150 mM, NADP+ 200 µM, stronger effect = higher value

Row | Compound | Tm shift [Celsius]
7 | O=C(O[C@@H]1Cc2c(O)cc(O)cc2O[C@H]1c1ccc(O)c(O)c1)c1cc(O)c(O)c(O)c1 | 12.6

Same assay, conditions: recombinant PECR, at 100 µM, protein 2 µM, buffer 10 mM HEPES, pH 7.5, NaCl 150 mM, NADP+ 200 µM, stronger effect = higher value

Row | Compound | Tm shift [Celsius]
8 | O=C1C2(Cl)C3(Cl)C4(Cl)C(Cl)(Cl)C5(Cl)C3(Cl)C1(Cl)C5(Cl)C24Cl (stereo not drawn) | 3.1
9 | O=C1Nc2ccccc2C1=O | 6.4
10 | CCCCCCCCCC(=O)SCCNC(=O)CCNC(=O)C(O)C(C)(C)COP(=O)(O)OP(=O)(O)OCC1OC(n2cnc3c(N)ncnc32)C(O)C1OP(=O)(O)O (stereo not drawn) | 4.1
11 | C[C@@]12CCC3=C(CCc4cc(O)ccc43)[C@H]1CCC2=C(F)F | 3.7
12 | C=CC1=C(C)/C(=C/c2[nH]c(Cc3[nH]c(/C=C4\NC(=O)C(C)=C4C=C)c(C)c3CCC(=O)O)c(CCC(=O)O)c2C)NC1=O | 10
13 | C[C@@]12CCC3=C(CCc4cc(O)ccc43)[C@]13C[C@@H]3CC2=C(F)F | 23.8

Reference: PubChem BioAssay AID392 (SGCOxCompounds, 2006)
